The text below walks through data of patent publication US20150098905A1, “METHODS TO DETECT A FUNGAL CELL” (priority 2012, published 2015).

Assay [1] has as its system C. albicans and A. fumigatus cells. Kind of assay: Pretreatment with unlabeled antifungal drug followed by probe labeling. The settings on record: for effect of pretreatment on CSF-BOD labeling: pretreatment C. albicans 1 h, A. fumigatus 2 h, azoles at one dilution below the MIC, then CSF-BOD; for effect of pretreatment on labeling of cells by POS-BOD: pretreatment with unlabeled drug, then POS-BOD. It is filed as cell-based, Candida albicans, Aspergillus fumigatus. From the text: To illustrate the potential of CSF-BOD and POS-BOD for visualizing fungal cells, the reagent was used to probe for the presence of Candida and Aspergillus species in a variety of matrices including solid and liquid growth media. The clinical A. fumigatus wild type strain R21 and Candida albicans ATCC strain 90028 were used for all the experiments. For Aspergillus, one drop of yeast extract peptone dextrose (YPD) agar was placed in the upper right corner of each well of a 15-well multitest slide followed by the addition of 10 μl of saline containing 105 conidia of R21. The slide was placed in a sterile petri dish with distilled water to provide a moist environment and incubated in a 37° C. incubator for 10-16 hours to facilitate germination and growth of hyphal elements. A 10 μl aliquot of CSF-BOD (170 ng/ml) or POS-BOD (150 ng/ml) was added to each well and incubated for 6 h at 37° C., followed by washing 3 times with sterile water and drying by vacuum. For Candida, an overnight culture of C. albicans was grown, washed by centrifugation and resuspended in dH2O. The yeast cells were added to RPMI and incubated at 200 rpm for 1 h at 37° C. to form germ tubes before being washed and resuspended in a 1 ml solution of CSF-BOD (120 ng/mil) or POS-BOD (150 ng/ml). The cells with drug were incubated again at 200 rpm for 1 h at 37° C., washed and resuspended in 50 ml of dH2O. A 15 well slide was prepared using a poly-L-lysine to tightly adhere cells to the wells. A 10 μL aliquot of Candida cells was placed on each well and incubated for 10 minutes, aspirated off, and 1 μL Slow Fade Antifade reagent was added to prolong the fluorescent life and moisture level of the cells on the each slide. Each slide was observed under 100× magnification with the total internal reflection objective lens (TIRF) of a Nikon Eclipse 90i fluorescent microscope. The 15 wells of the slides were examined individually using Volocity 3D Image Analysis Software (PerkinElmer). Individual cells, hyphal elements and clusters of cells were visualized, analyzed, and captured in bright field lighting and repeated under a Green Fluorescent Protein (GFP) light setting.

The test system of assay [2] is C. albicans. Briefly: Antifungal activity (MIC) of labeled and unlabeled caspofungin. It is filed as cell-based. The conditions noted are these: Candida albicans. On the procedure: A derivative of CSF using BODIPY (BOD), an analog that resembles fluorescein but is smaller and more hydrophobic, was produced to test the CSF-BOD with various fungal pathogens. BODIPY-succinimidate was incubated with pure CSF in the presence of triethylamine as proton acceptor in DMF. The crude product was purified by TLC silica gel chromatography and characterized using mass spectroscopy, fluorescence and UV spectroscopy. The modified agent retained its specificity and sensitivity to the fungal target. […] BODIPY coupled to posaconazole (POS) was formed by modifying a single hydroxyl group of posaconazole with succinic anhydride (FIG. 6).

Assay [3] deals with A. fumigatus wild type strain R21. Briefly: Cell labeling with fluorescent probe, fluorescence microscopy. In kind it is cell-based, Aspergillus fumigatus. The conditions noted are these: control, species not given. From the text: To illustrate the potential of CSF-BOD and POS-BOD for visualizing fungal cells, the reagent was used to probe for the presence of Candida and Aspergillus species in a variety of matrices including solid and liquid growth media. The clinical A. fumigatus wild type strain R21 and Candida albicans ATCC strain 90028 were used for all the experiments. For Aspergillus, one drop of yeast extract peptone dextrose (YPD) agar was placed in the upper right corner of each well of a 15-well multitest slide followed by the addition of 10 μl of saline containing 105 conidia of R21. The slide was placed in a sterile petri dish with distilled water to provide a moist environment and incubated in a 37° C. incubator for 10-16 hours to facilitate germination and growth of hyphal elements. A 10 μl aliquot of CSF-BOD (170 ng/ml) or POS-BOD (150 ng/ml) was added to each well and incubated for 6 h at 37° C., followed by washing 3 times with sterile water and drying by vacuum. For Candida, an overnight culture of C. albicans was grown, washed by centrifugation and resuspended in dH2O. […] Individual cells, hyphal elements and clusters of cells were visualized, analyzed, and captured in bright field lighting and repeated under a Green Fluorescent Protein (GFP) light setting.

Values after ≈ are worked out from the molar mass of the structure shown. Numbered stars: 1 amine (or outer) side, 2 acyl side, 3 side chain; on linkers, the order of the positions; unused ones are H or OH. Bridge positions count the residues as written; N and C are the ends. Square brackets hold non-standard residues; d marks the D form. Peptide text beside a SMILES is read from it. * marks the point of attachment. hTyr(3S-OH,4S-OH,3'-OSO3H) = N[C@H](C(=O)O)[C@H](O)[C@@H](O)c1ccc(O)c(OS(=O)(=O)O)c1; pTerphenylCO(4''-OnC5H11) = CCCCCOc1ccc(-c2ccc(-c3ccc(C(=O)*)cc3)cc2)cc1; Orn(4R-OH,5R-OH) = O=C([C@H](C[C@@H](O)[C@@H](O)N[*:3])N[*:1])[*:2]; hTyr(3S-OH,4S-OH) = N[C@H](C(=O)O)[C@H](O)[C@@H](O)c1ccc(O)cc1; Pro(3S-OH,4S-Me) = C[C@H]1CN[C@H](C(=O)O)[C@H]1O; X1 = CCCCCOc1ccc(-c2cc(-c3ccc(C(=O)*)cc3)no2)cc1; Gln(3R-OH) = NC(=O)C[C@@H](O)[C@H](N)C(=O)O; Hyp = O=C(O)[C@@H]1C[C@@H](O)CN1

On to `CC[C@H](C)C[C@H](C)CCCCCCCCC(=O)N[C@H]1C[C@@H](O)[C@@H](NCCN)NC(=O)[C@@H]2[C@@H](O)CCN2C(=O)[C@H]([C@H](O)CCN)NC(=O)[C@H]([C@H](O)[C@@H](O)c2ccc(O)cc2)NC(=O)[C@@H]2C[C@@H](O)CN2C(=O)[C@H]([C@@H](C)O)NC1=O` [caspofungin], for which, in assay [1], the “effect of pretreatment on CSF-BOD labeling” value (shortened to “effect … on CSF-BOD labeling”) is “intensified the fluorescence” and the “effect of pretreatment on labeling of cells by POS-BOD” value (“effect of pretreatment … by POS-BOD” below) was “little effect”. This compound returned an MIC in assay [2] of 0.06 mg/L (≈ 0.0549 µM). For the same compound, in assay [3], the “labeling by unconjugated drug or dye alone” value is recorded as “failed to produce any labeling”.
On to `OC(Cn1cncn1)(Cn1cncn1)c1ccc(F)cc1F` [fluconazole], for which the “effect … on CSF-BOD labeling” value in assay [1] is reported as “no effect”.
On the same count and under the same terms, with `CCCCCOc1ccc(-c2ccc(-c3ccc(C(=O)N[C@H]4C[C@@H](O)[C@@H](O)NC(=O)[C@@H]5[C@@H](O)[C@@H](C)CN5C(=O)[C@H]([C@@H](C)O)NC(=O)[C@H]([C@H](O)[C@@H](O)c5ccc(O)cc5)NC(=O)[C@@H]5C[C@@H](O)CN5C(=O)[C@H]([C@@H](C)O)NC4=O)cc3)cc2)cc1` [anidulafungin] ({pTerphenylCO(4''-OnC5H11)}-[Orn(4R-OH,5R-OH)]T[Hyp][hTyr(3S-OH,4S-OH)]T[Pro(3S-OH,4S-Me)]; lactam 1-C) the entry was “eliminated the labeling”; with `CCC(C)n1ncn(-c2ccc(N3CCN(c4ccc(OCC5COC(Cn6cncn6)(c6ccc(Cl)cc6Cl)O5)cc4)CC3)cc2)c1=O` (stereo not shown) [itraconazole], “no effect”.
As to `CC[C@@H]([C@H](C)O)n1ncn(-c2ccc(N3CCN(c4ccc(OC[C@@H]5CO[C@@](Cn6cncn6)(c6ccc(F)cc6F)C5)cc4)CC3)cc2)c1=O` [posaconazole], in assay [1], the “effect … on CSF-BOD labeling” value was “no effect” and the “effect of pretreatment … by POS-BOD” value was “greatly diminished or eliminated the fluorescence signal”.
For the compound boron-dipyrromethene [BODIPY], in assay [3], the “labeling by unconjugated drug or dye alone” value was “failed to produce any labeling”.
As for `C[C@@H](c1ncncc1F)[C@](O)(Cn1cncn1)c1ccc(F)cc1F` [voriconazole], in assay [1], the “effect … on CSF-BOD labeling” value was “no effect” and the “effect of pretreatment … by POS-BOD” value was “greatly diminished or eliminated the fluorescence signal”.
`CCCCCOc1ccc(-c2cc(-c3ccc(C(=O)N[C@H]4C[C@@H](O)[C@@H](O)NC(=O)[C@@H]5[C@@H](O)[C@@H](C)CN5C(=O)[C@H]([C@H](O)CC(N)=O)NC(=O)[C@H]([C@H](O)[C@@H](O)c5ccc(O)c(OS(=O)(=O)O)c5)NC(=O)[C@@H]5C[C@@H](O)CN5C(=O)[C@H]([C@@H](C)O)NC4=O)cc3)no2)cc1` [micafungin] (X1-[Orn(4R-OH,5R-OH)]T[Hyp][hTyr(3S-OH,4S-OH,3'-OSO3H)][Gln(3R-OH)][Pro(3S-OH,4S-Me)]; lactam 1-C): in assay [1], the “effect … on CSF-BOD labeling” value is reported as “eliminated the labeling”.
